Reference: ChEMBL document CHEMBL2375250, “Efficient synthesis of new (R)-2-amino-1-butanol derived ureas, thioureas and acylthioureas and in vitro evaluation of their antimycobacterial activity” (Eur J Med Chem, 2013)
Values after ≈ are worked out from the molar mass of the structure shown.

Tests used:
[1] = tested on: Mycobacterium tuberculosis; assay: Antimycobacterial activity against multidrug-resistant Mycobacterium tuberculosis 43 assessed as bacterial growth at 5 uM after 45 days by Lowenstein-Jensen method; assay type: functional
[2] = tested on: Mycobacterium tuberculosis; assay: Antimycobacterial activity against multidrug-resistant Mycobacterium tuberculosis 43 assessed as growth inhibition after 45 days by Lowenstein-Jensen method; assay type: functional

Work on `CC[C@H](CO)NC(=S)NC(=O)c1ccc(N(C)C)cc1` yielded an Activity [1] of 100% and an MIC [2] greater than 16.9 µM.

Compound `CC[C@H](CO)NC(=S)NC(=O)CCc1ccccc1` has an Activity [1] of 100% and an MIC [2] greater than 17.8 µM.

`CC[C@H](CO)NC(=S)NC(=O)/C=C/c1ccccc1` showed an Activity [1] of 100% and an MIC [2] greater than 18 µM.

With `CC[C@H](CO)NC(=S)NC(=O)c1ccccc1O` the MIC [2] was 7.46 µM (≈ 2 µg/mL).
